Source: patent US20080031982A1 (Metaproteomics, LLC, priority 2006, published 2008)

Tests used:
Test in all cases: KinaseProfiler Assay
CDK2/cyclinA = CDK2/cyclinA (Homo sapiens, UniProt P24941)
CDK9/cyclin T1 = CDK9/cyclin T1 (Homo sapiens, UniProt P50750)
CK1(y) = system: CK1(y)
CK1δ = CK1δ (Homo sapiens, UniProt P48730)
Fer = Fer (Homo sapiens, UniProt P16591)
Fyn = Fyn (Homo sapiens, UniProt P06241)
GSK3β = GSK3β (Homo sapiens, UniProt P49841)
GSK3α = GSK3α (Homo sapiens, UniProt P49840)
HIPK2 = HIPK2 (Homo sapiens, UniProt Q9H2X6)
IGF-1R = IGF-1R (Homo sapiens, UniProt P08069)
Chain of IGF-1R (P08069 31-1367): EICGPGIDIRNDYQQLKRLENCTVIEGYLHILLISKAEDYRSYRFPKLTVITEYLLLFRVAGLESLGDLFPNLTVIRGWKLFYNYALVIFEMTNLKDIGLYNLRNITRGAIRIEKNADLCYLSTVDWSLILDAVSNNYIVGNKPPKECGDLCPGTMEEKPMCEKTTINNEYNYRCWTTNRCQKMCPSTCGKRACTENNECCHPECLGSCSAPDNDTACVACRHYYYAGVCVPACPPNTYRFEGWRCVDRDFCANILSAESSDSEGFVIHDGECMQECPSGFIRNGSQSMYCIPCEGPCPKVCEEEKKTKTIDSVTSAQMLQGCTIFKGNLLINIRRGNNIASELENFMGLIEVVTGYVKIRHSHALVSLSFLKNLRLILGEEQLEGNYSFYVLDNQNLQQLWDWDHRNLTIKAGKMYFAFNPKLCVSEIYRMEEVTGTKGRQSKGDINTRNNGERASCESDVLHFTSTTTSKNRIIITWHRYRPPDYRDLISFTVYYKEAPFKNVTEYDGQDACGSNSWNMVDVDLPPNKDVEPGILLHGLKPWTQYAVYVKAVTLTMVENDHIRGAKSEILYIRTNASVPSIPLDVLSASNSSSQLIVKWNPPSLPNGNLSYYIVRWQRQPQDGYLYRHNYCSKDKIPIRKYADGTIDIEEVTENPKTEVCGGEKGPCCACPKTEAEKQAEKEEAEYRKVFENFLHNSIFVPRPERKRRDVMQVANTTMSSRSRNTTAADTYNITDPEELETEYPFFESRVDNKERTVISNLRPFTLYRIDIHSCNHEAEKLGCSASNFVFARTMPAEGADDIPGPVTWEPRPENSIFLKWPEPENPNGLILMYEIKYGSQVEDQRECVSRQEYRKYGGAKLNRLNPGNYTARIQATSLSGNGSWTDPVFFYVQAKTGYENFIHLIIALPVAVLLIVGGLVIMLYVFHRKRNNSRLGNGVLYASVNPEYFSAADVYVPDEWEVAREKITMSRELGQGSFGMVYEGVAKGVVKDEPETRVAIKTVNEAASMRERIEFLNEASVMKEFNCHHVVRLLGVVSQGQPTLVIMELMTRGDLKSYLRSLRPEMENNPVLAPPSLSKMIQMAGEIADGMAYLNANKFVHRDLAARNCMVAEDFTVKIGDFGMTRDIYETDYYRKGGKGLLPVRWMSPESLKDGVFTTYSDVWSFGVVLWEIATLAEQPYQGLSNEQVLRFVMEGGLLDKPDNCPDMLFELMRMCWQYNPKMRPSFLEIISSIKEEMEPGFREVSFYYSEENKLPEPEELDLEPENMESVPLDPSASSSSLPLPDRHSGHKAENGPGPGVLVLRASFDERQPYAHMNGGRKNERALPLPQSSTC

IR = IR (Homo sapiens, UniProt P06213)
Chain of IR (P06213 28-1382): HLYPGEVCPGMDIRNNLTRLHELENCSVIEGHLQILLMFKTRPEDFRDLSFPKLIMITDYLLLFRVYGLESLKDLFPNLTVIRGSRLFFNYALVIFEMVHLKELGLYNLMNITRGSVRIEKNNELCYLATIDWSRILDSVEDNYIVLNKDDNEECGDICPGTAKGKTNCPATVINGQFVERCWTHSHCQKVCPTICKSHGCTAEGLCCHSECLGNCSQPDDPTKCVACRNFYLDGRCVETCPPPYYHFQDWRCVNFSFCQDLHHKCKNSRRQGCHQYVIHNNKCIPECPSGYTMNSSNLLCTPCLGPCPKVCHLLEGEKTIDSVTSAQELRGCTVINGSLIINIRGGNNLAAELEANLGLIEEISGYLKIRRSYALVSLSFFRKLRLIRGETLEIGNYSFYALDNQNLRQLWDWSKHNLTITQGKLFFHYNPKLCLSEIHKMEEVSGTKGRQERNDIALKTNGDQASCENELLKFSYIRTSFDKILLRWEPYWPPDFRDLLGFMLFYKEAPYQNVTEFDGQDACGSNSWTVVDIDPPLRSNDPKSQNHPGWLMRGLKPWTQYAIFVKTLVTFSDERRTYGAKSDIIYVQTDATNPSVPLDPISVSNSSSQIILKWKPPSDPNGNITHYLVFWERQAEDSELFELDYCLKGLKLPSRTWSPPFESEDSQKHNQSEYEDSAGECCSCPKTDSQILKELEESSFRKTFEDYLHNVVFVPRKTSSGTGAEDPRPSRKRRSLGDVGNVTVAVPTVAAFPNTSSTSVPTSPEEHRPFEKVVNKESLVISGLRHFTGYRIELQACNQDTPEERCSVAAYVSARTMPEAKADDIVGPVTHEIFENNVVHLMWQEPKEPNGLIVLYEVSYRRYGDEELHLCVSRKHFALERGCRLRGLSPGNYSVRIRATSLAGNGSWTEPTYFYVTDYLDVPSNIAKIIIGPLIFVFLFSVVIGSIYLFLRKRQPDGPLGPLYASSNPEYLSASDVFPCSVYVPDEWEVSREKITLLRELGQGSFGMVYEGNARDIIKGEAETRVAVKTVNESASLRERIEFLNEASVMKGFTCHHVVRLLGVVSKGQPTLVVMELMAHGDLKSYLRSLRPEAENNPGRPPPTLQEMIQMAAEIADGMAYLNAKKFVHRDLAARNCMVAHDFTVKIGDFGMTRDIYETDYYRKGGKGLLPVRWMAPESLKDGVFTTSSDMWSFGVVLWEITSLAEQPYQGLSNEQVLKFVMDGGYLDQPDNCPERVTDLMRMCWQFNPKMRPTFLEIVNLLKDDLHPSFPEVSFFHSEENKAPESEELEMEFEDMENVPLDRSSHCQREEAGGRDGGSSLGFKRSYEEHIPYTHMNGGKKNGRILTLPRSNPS

PKCβII = PKCβII (Homo sapiens, UniProt P05771)
Chain of PKCβII (P05771 1-673 isoform P05771-2): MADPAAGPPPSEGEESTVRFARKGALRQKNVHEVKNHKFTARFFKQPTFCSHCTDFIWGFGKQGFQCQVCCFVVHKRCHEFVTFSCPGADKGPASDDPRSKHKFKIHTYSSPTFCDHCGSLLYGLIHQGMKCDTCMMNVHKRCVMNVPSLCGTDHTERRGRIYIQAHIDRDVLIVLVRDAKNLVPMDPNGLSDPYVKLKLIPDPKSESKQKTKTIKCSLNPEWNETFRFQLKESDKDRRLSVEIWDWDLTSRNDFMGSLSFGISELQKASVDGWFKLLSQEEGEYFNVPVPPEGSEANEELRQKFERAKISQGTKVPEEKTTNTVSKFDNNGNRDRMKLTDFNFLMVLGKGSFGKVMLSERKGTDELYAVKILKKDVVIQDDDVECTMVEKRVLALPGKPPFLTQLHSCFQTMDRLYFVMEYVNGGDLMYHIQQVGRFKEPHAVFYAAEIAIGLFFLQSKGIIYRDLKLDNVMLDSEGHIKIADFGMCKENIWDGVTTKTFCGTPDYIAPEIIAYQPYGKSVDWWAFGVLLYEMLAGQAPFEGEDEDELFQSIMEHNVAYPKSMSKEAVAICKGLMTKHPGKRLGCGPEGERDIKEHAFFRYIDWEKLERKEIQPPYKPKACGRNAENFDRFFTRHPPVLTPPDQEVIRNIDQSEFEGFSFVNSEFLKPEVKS

TBK1 = molecular target: T1, TBK1 (Homo sapiens, UniProt Q9UHD2)
T1 sequence (Q9UHD2 1-729): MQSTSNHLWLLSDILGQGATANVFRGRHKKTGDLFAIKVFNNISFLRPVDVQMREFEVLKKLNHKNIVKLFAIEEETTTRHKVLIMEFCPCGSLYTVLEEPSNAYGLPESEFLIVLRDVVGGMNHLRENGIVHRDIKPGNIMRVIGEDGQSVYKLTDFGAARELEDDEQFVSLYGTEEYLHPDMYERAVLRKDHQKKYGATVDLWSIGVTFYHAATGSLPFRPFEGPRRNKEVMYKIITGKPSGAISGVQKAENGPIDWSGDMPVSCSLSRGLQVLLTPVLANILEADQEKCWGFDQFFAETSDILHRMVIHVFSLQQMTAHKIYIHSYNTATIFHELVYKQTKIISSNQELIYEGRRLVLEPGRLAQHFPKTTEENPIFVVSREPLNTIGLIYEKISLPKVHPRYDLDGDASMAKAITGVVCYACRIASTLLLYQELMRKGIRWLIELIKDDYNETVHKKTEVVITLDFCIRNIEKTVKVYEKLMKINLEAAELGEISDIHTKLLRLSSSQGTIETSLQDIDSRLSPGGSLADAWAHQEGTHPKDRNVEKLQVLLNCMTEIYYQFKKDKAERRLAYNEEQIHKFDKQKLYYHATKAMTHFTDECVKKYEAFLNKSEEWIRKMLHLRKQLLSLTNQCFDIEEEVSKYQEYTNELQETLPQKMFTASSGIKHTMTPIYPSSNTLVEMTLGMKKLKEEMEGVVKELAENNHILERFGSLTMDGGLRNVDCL

PAK5 = PAK5 (Homo sapiens, UniProt Q9P286)
Chain of PAK5 (Q9P286 whole entry): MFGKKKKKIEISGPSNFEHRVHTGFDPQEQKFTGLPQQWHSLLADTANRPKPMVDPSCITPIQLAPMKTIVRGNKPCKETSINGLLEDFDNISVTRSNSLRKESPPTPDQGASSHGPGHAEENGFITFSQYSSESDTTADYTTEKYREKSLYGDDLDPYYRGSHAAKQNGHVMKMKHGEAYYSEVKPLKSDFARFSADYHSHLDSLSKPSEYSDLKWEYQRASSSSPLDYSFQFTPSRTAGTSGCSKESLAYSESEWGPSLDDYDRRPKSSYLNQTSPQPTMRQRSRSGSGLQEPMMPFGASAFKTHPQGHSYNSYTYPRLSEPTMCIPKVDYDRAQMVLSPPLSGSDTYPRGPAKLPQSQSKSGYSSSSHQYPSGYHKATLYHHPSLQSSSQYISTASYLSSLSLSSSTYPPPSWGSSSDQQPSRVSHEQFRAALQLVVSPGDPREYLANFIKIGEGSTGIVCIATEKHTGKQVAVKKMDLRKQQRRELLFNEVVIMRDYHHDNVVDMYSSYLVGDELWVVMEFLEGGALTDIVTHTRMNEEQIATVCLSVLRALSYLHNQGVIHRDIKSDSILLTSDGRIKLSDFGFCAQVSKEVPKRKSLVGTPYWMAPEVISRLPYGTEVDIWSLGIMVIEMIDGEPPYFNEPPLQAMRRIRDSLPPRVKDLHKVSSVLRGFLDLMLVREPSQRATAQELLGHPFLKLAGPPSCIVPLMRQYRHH

CK1γ1 = CK1γ1 (Homo sapiens, UniProt Q9HCP0)

Chain of GSK3β (P49841 whole entry): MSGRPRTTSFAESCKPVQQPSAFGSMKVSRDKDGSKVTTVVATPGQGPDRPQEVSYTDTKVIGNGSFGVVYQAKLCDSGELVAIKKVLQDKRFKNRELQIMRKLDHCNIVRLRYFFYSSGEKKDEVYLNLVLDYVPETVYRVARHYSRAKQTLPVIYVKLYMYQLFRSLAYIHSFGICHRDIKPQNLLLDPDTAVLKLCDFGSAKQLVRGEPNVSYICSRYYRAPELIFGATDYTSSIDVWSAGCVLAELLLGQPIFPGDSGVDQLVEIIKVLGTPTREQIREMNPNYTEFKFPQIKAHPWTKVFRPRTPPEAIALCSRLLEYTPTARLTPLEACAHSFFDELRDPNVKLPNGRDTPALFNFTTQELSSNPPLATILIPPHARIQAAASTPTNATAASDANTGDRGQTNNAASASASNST
Chain of GSK3α (P49840 whole entry): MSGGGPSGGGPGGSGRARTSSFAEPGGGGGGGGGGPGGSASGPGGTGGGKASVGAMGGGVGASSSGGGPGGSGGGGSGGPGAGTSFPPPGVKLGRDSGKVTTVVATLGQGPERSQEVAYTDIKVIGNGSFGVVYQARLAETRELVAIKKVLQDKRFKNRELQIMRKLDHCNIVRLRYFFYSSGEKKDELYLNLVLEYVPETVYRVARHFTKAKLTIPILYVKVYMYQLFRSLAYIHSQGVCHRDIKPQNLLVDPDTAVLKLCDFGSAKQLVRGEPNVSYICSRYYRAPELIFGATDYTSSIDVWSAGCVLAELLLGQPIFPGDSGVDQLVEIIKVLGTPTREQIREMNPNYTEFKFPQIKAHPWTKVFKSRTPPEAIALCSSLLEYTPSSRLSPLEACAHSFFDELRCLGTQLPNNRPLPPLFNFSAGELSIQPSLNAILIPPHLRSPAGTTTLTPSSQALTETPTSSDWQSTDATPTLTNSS

COc1cc(O)c(CC=C(C)C)c(O)c1C(=O)/C=C/c1ccc(O)cc1 [Xanthohumol, xanthohumol]
Kinase activity, % of Control (CDK2/cyclinA; 1 ug/ml): 107 % of Control | Kinase activity, % of Control (CDK2/cyclinA; 5 ug/ml): 96 % of Control | Kinase activity, % of Control (CDK2/cyclinA; 25 ug/ml): 57 % of Control | Kinase activity, % of Control (CDK2/cyclinA; 50 ug/ml): 6 % of Control | Kinase activity, % of Control (CDK9/cyclin T1; 1 ug/ml): 110 % of Control | Kinase activity, % of Control (CDK9/cyclin T1; 5 ug/ml): 107 % of Control | Kinase activity, % of Control (CDK9/cyclin T1; 25 ug/ml): 45 % of Control | Kinase activity, % of Control (CDK9/cyclin T1; 50 ug/ml): 31 % of Control | Kinase activity, % of Control (CK1(y); 1 ug/ml): 91 % of Control | Kinase activity, % of Control (CK1(y); 5 ug/ml): 63 % of Control | Kinase activity, % of Control (CK1(y); 25 ug/ml): 37 % of Control | Kinase activity, % of Control (CK1(y); 50 ug/ml): 9 % of Control | Kinase activity, % of Control (CK1δ; 5 ug/ml): 32 % of Control | Kinase activity, % of Control (CK1δ; 25 ug/ml): 16 % of Control | Kinase activity, % of Control (CK1δ; 50 ug/ml): 12 % of Control | Kinase activity, % of Control (Fer; 1 ug/ml): 55 % of Control | Kinase activity, % of Control (Fer; 5 ug/ml): 20 % of Control | Kinase activity, % of Control (Fer; 25 ug/ml): 10 % of Control | Kinase activity, % of Control (Fer; 50 ug/ml): 1 % of Control | Kinase activity, % of Control (Fyn; 1 ug/ml): 104 % of Control | Kinase activity, % of Control (Fyn; 5 ug/ml): 66 % of Control | Kinase activity, % of Control (Fyn; 25 ug/ml): 42 % of Control | Kinase activity, % of Control (Fyn; 50 ug/ml): 18 % of Control | Kinase activity, % of Control (GSK3β; 1 ug/ml): 120 % of Control | Kinase activity, % of Control (GSK3β; 5 ug/ml): 99 % of Control | Kinase activity, % of Control (GSK3β; 25 ug/ml): 25 % of Control | Kinase activity, % of Control (GSK3β; 50 ug/ml): 3 % of Control | Kinase activity, % of Control (GSK3α; 1 ug/ml): 102 % of Control | Kinase activity, % of Control (GSK3α; 25 ug/ml): 11 % of Control | Kinase activity, % of Control (GSK3α; 50 ug/ml): −4 % of Control | Kinase activity, % of Control (HIPK2; 1 ug/ml): 110 % of Control | Kinase activity, % of Control (HIPK2; 5 ug/ml): 98 % of Control | Kinase activity, % of Control (IGF-1R; 1 ug/ml): 107 % of Control | Kinase activity, % of Control (IGF-1R; 25 ug/ml): 129 % of Control | Kinase activity, % of Control (IGF-1R; 50 ug/ml): 139 % of Control | Kinase activity, % of Control (IR; 1 ug/ml): 120 % of Control | Kinase activity, % of Control (IR; 5 ug/ml): 108 % of Control | Kinase activity, % of Control (IR; 50 ug/ml): 103 % of Control | Kinase activity, % of Control (PKCβII; 1 ug/ml): 108 % of Control | Kinase activity, % of Control (PKCβII; 5 ug/ml): 108 % of Control | Kinase activity, % of Control (PKCβII; 25 ug/ml): 71 % of Control | Kinase activity, % of Control (PKCβII; 50 ug/ml): 79 % of Control | Kinase activity, % of Control (TBK1; 1 ug/ml): 104 % of Control | Kinase activity, % of Control (TBK1; 5 ug/ml): 71 % of Control | Kinase activity, % of Control (TBK1; 25 ug/ml): 45 % of Control | Kinase activity, % of Control (TBK1; 50 ug/ml): 42 % of Control | Kinase activity, % of Control (PAK5; 1 ug/ml): 106 % of Control | Kinase activity, % of Control (PAK5; 5 ug/ml): 99 % of Control | Kinase activity, % of Control (PAK5; 25 ug/ml): 42 % of Control | Kinase activity, % of Control (PAK5; 50 ug/ml): 5 % of Control | Kinase activity, % of Control (CK1γ1; 1 ug/ml): 101 % of Control | Kinase activity, % of Control (CK1γ1; 5 ug/ml): 79 % of Control | Kinase activity, % of Control (CK1γ1; 25 ug/ml): 50 % of Control | Kinase activity, % of Control (CK1γ1; 50 ug/ml): 26 % of Control
